The text below walks through data of US9944721B2, “Polysialic acid and use for treatment of neurodegenerative and neuroinflammatory diseases” (RHEINISCHE FRIEDRICH-WILHELMS UNIVERSITÄT BONN, priority 2013, dated 2018).

Data set [1] relates to human microglial cells. Kind of data set: Phagocytosis associated oxidative burst: neural debris triggered superoxide release (DHE). It is filed as cell-based. The method, then:
To measure the relative production of superoxide by the microglial cells, human microglial cells were plated in 4-chamber culture dishes. After 24 hours cells were treated with 5 mg/ml neural debris for 15 minutes with or without 1 hour PSA-20 pre-incubation at concentrations of 0.15 μM, 0.5 μM or 1.5 μM. Then, cells were washed 2-times with Krebs-HEPES-buffer. To detect the release of superoxide the cells were afterwards incubated for 15 minutes with 30 μM superoxide-sensitive fluorescent dye dihydroethidium (DHE) solution diluted in Krebs-HEPES-buffer. Finally cells were washed 2-times with Krebs-HEPES-buffer and fixed for 15 minutes with 0.25% glutaraldehyde and 4% PFA. In total, six images were randomly collected per experimental group by confocal laser scanning microscopy (Fluoview 1000, Olympus). All cells of the collected images were analyzed by Image J software (NIH).
To confirm the effect, Trolox as scavenger of superoxide and superoxide dismutase-1 (SOD1) as modifier of superoxide were used in a control experiment as described above using 1.5 μM of PSA-20 but adding either 40 μM Trolox or 20 μg/ml (SOD1) into the medium. […] As can be taken from the FIG. 9C, the radical scavenger Trolox and the superoxide dismutase SOD1 neutralized the neural debris triggered superoxide release and as controls confirmed that DHE detected an extracellular production of superoxide.

Data set [2] concerns human neurons co-cultured with LPS-pre-activated human microglia. Briefly: LPS-toxin induced microglia-neuron co-culture Parkinson's disease model (neurite length). Type of data set: cell-based. The settings on record: 1.5 μM, 48 hours, without PSA-20 0.64+/−0.01, FIG. 9A. The procedure:
Human induced pluripotent stem cell-derived microglia (iPSdM) were obtained from induced pluripotent stem (iPS) cells. The microglial iPSdM line 1 (iPSdM-1) was used in this study generated from the iLB-C-35m-r1 clone (Bonn). iPSdM-1 (here named microglia or microglial cells) were cultured in N2-medium consisting of DMEM/F12 culture medium (Gibco) supplemented with 1% N2 (Invitrogen), 0.48 mM L-glutamine (Gibco) and 100 μg/ml penicillin/streptomycin (Gibco). Human induced pluripotent stem (iPS) cells (Foreskin-1, WiCell) were used for the generation of primitive neural stem cell (pNSC) and their differentiation into neurons according to a modified protocol, which was used to obtain primitive neural precursors from human embryonic stem cells. Briefly, iPS cells were cultured on feeder cells to form small colonies. […]
10 pictures per condition per experiment were taken by confocal laser scanning microscopy (Fluoview 1000, Olympus). Measurement of neuronal branches was done by ImageJ/Neuron J software (NIH) and relative neural branches lengths were quantified. […]

Data set [3] in a line: Biotinylated PSA-20 in serum and brain after intraperitoneal application (ELISA). Type of data set: in vivo, mice. The method, then:
First, PSA-20 was conjugated with biotin and a sensitive ELISA to detect biotinylated PSA-20 was established. The PSA-20 was coupled with a biotin molecule at the sixth carbon atom of sialic acid at the terminus of the PSA-20 chains. Therefore, the terminus of PSA-20 was oxidized to an aldehyde by sodium metaperiodate. Afterwards, hydrazide coupled biotin was conjugated at room temperature to the aldehyde group to form a hydrazone bond. Purification was carried out with a desalting column (HiTrap Desalting Column GE Healthcare).
Biotin-conjugated PSA-20 (10 μg per g body weight) was applied in adult mice by intraperitoneal application. An ELISA method was used to detect biotinylated PSA-20 in the serum and brain. For the ELISA, NeutrAvidin coated pre-blocked plates (Thermo Scientific) were washed three times with PBST (PBS+0.05% Tween-20). After washing, plasma and brain homogenate as well as defined concentrations of biotinylated PSA-20 as standard were applied for 1 h at room temperature. Plates were washed three times and were incubated with a monoclonal antibody directed against oligosialic acids (rat-anti-mouse CD56, BD Pharmingen #556325) over night at 4° C. The following day the plate were washed three times and incubated with goat anti-mouse immunoglobulin conjugated with peroxidase-HRP (Jackson ImmunoResearch). Then, plates were washed and incubated with 100 μl TMB-reagent for 30 min at room temperature. The reaction was stopped by addition of 100 μl 1N HCl and the signal was detected with an ELISA reader.
Serum and brain tissue of one mouse was analyzed before application and at 0.5, 1, 2, 4 and 8 hours after application. The highest PSA-20 level was detected in the serum at 0.5 hours and in the brain at 2 hours. The half-time of PSA-20 in the serum and in the brain was estimated to be between 2 and 3 hours. The bioavailability of PSA-20 in the brain in relation to the serum was estimated to be between 1 and 3%. […] As can be taken from the FIG. 10C, PSA-20 was detected in the serum and the brain. […]
Background: ELISA stands for enzyme-linked immunosorbent assay.

Where [4] appears, read: biotin-conjugated PSA-20, 10 μg per g body weight i.p., adult mice.

Turning to poly-(α(2→8)Neu5Ac)n [PSA-20], the “superoxide release triggered by neural debris” value in data set [1] (0.5 μM and 1.5 μM) is listed as “inhibited”. In addition, the “relative superoxide production, debris-induced” value in data set [1] (1.5 μM, 1 hour pre-incubation, debris alone 1.5+/−0.08, FIG. 9C) is given as 0.9+/−0.05. In addition, in data set [2], the relative neurite length was 0.91+/−0.02. In addition, the “passage of the blood-brain barrier” value in data set [3] (after systemic application) is “passed the blood-brain barrier”. In data set [3] (setting [4]), the “time of peak concentration in the brain” value was 2 h and the “time of peak concentration in the serum” value turned out to be 0.5 h.
